Results from US11352399B2, “Peptide for toll-like receptor (TLR) inhibition and pharmaceutical composition comprising same” (GENESEN CO., LTD., priority 2017, dated 2022).

Columns and labels:
TLR4 signaling pathways = experiment: Western blotting of NF-κB and MAPK in LPS-treated hPBMC cells; format: cell-based, human; details: LPS together with TIP1
Description: In order to perform Western blotting, a pre-protein extraction solution (M-PER, Thermo Fisher Scientific Inc.) was mixed with a protease and phosphatase inhibitor mixture, and was added to RAW 264.7 cell or hPBMC cell pellets. The pellets were cooled for 10 minutes, and then the lysates were centrifuged at 16000×g for 10 minutes. Then, NE-PER nuclear and cytoplasmic extraction reagents (Thermo Fisher Scientific Inc.) were used to extract cytoplasmic and nuclear proteins, respectively, and a BCA kit (Sigma-Alderich Co. LLC) was used to measure concentrations of the proteins. Subsequently, the same amounts of proteins were developed on SDS-polyacrylamide gels, and electrophoresis was performed using the Mini-PROTEAN Tetra Cell two-dimensional electrophoresis system (Bio-Rad Laboratories, Hercules, Calif., USA). The membrane was immunoblotted with primary antibodies by gentle shaking overnight at a temperature of 4° C. […] Then, after thorough shaking with PBST, the membrane was incubated with anti-mouse/-rabbit HRP-conjugated secondary antibodies (Thermo Fisher Scientific Inc.) for 2 hours; and the proteins were detected with SuperSignal West Pico ECL solution (Thermo Fisher Scientific Inc.) and were visualized with the Fuji LAS-3000 system (Fujifilm, Tokyo, Japan). […]

hPBMC cells = experiment: NO secretion in LPS-treated hPBMC cells; format: cell-based, human; details: together with LPS, FIG. 12(b)
NLRP3 inflammasome [1] = experiment: IL-1β secretion (ELISA) in LPS/ATP-treated THP1 cells; format: cell-based, human; details: TIP1 and LPS/ATP
TLR2/6 = target: T1, TLR2/6 (Mus musculus, UniProt Q9EPW9+Q9QUN7); experiment: TNF-α secretion in RAW 264.7 cells with FSL-1; format: cell-based
T1 construct: host or cells: RAW 264.7

NLRP3 inflammasome [2] = experiment: Western blotting of NLRP3 inflammasome molecules in LPS/ATP-treated THP1 cells; format: cell-based, human
NF-κB (p-p65) = experiment: Confocal microscopy of NF-κB activity (p-p65) in LPS-treated RAW 264.7 cells; format: cell-based, mouse; details: LPS together with TIP1, FIG. 3
Description: RAW 264.7 cells and THP1 cells were dispensed into 24-well plates to a cell number of 2×10^5 cells/well, and then grown in an incubator overnight. Subsequently, combined treatment with TIP1 and LPS was performed. After 24 hours, the RAW 264.7 cells and the THP1 cells were fixed with 3.7% formaldehyde (Sigma-Aldrich Co. LLC) for 15 minutes, and immersed into 0.2% Triton X-100 (AMRESCO, Solon, Ohio, USA) for 15 minutes. Then, washing with PBS was performed three times and blocking with 2% BSA solution was performed. The blocked cells were incubated for 2 hours with TIP1-FITC (25 μM; Peptron, Inc., Daejeon, Korea), p-p65, TLR4, Myd88, TOM20 (1:1000; Santa Cruz Biotechnology Inc.), and NLRP3 (Adipogen) antibodies. Then, washing with PBS was performed three times. Subsequently, the cells were incubated with AlexaFluor […] and/or 488 and/or 546-conjugated secondary antibodies (Invitrogen, Carlsbad, Calif., USA) for 1 hour, and washed three times with PBS. Subsequently, the cells were stained at room temperature for 15 minutes using 5 μM Hoechst 33258 (Sigma-Aldrich Co.), and the number of the fluorescently stained cells was counted using a confocal laser scanning microscope (LSM-700, Carl Zeiss MicroImaging GmbH). The images were analyzed using Zen 2009 software.
The results are illustrated in FIG. 3.

[3] = test system: liver tissues of C57BL/6J mice; experiment: Cytokine expression in liver tissue of LPS-treated mice (Western blotting); format: in vivo, mouse; details: LPS and TIP1, 2 hours
[4] = test system: renal tissue of LPS-treated mice; experiment: Renal apoptosis by TUNEL staining in LPS-treated mice; format: in vivo, mouse; details: TIP1 and LPS, 24 hours
Description: Subsequently, renal tissues were isolated and weighed using an electronic balance (ER-180A, A&D Company, Tokyo, Japan); and then, cut into sagittal planes to make slices. The slices were left overnight in a 10% formalin solution, and then solidified by pouring of paraffin wax. The resultant was made into thin sections of 4 μm using a microtome and fixed. […] The images were analyzed using Zen 2009 software (Carl Zeiss MicroImaging GmbH.). The results are illustrated in FIG. 17.

hTLR4 (human TLR4) = target: T2, hTLR4 (human TLR4) (Homo sapiens, UniProt O00206); experiment: SEAP activity (NF-κB activity) in HEK-Blue-hTLR4 cells; format: cell-based
T2 construct: host or cells: HEK-Blue-hTLR4 (HEK293-derived reporter line)
Description: HEK-Blue™-hTLR4 cells were dispensed into 24-well plates (BD Biosciences) to a cell number of 2×10^5 cells/well, and incubation was performed overnight. The next day, the culture was removed and medium replacement was performed. Then, a portion (200 μl) of the culture was transferred to a microcentrifuge tube and heated at 65° C. for 10 minutes using a heating block (FINEPCR. Co., Seoul, Korea). Subsequently, the culture was transferred to 96-well plates (BD Biosciences), and absorbance was measured at 405 nm using the HEK-Blue™ detection kit (InvivoGen) and a microplate reader spectrophotometer (Molecular Devices Inc., Silicon Valley, Calif., USA), to analyze an expression level of SEAP (secreted alkaline phosphatase).
To this end, the inducible secreted embryonic alkaline phosphatase (SEAP) reporter gene was placed under the control of an IL-12 p40 minimal promoter (IL-12 p40 is produced by activation of NF-κB and AP-1 (activator protein 1) after stimulation of TLR4) which contains sites where DNAs of NF-κB and AP-1 bind. Then, HEK-Blue™-hTLR4 cells were treated with varying concentrations of TIP or TIP (TIP W/O CPP), to which CPP is not linked, at 12.5, 25, 50 μM, and then an average value of SEAP activity was calculated to measure TLR4 activity. The results are illustrated in FIGS. 1(a) and 1(b).
The results are illustrated in FIGS. 12(a) and 12(b).

[5] = test system: mBMDM cells (Poly(I:C)-induced); experiment: Poly(I:C)-induced IFN-β generation in mBMDM cells; format: cell-based, mouse

T2 sequence (O00206 24-839): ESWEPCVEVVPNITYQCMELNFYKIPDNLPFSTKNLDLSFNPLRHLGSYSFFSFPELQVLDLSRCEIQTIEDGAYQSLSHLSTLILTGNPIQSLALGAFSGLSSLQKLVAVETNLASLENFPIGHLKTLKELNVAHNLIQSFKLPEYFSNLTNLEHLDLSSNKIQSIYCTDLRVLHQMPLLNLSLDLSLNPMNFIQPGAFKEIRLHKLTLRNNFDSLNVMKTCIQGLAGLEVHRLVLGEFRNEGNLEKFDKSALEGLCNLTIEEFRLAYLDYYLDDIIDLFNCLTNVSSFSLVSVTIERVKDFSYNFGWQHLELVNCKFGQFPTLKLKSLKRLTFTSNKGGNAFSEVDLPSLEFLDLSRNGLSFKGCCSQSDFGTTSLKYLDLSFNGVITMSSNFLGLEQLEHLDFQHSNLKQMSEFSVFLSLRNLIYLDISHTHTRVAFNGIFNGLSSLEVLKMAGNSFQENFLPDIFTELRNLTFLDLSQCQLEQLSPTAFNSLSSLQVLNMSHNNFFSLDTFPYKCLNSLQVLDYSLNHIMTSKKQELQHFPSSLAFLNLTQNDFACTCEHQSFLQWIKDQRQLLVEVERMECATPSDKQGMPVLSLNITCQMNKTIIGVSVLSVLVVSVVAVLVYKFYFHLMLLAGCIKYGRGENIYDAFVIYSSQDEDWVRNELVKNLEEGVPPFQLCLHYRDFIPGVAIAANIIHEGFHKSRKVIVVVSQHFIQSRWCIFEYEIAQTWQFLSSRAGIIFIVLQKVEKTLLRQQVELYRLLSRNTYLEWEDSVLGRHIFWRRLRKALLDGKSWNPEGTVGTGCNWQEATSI
T2 sequence (Q9Y6Y9 17-160 partner limits assumed): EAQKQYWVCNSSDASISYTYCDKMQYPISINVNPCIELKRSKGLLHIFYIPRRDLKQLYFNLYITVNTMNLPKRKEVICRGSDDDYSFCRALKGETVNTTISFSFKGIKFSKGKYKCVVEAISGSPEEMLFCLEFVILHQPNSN
T1 sequence (Q9QUN7 25-784): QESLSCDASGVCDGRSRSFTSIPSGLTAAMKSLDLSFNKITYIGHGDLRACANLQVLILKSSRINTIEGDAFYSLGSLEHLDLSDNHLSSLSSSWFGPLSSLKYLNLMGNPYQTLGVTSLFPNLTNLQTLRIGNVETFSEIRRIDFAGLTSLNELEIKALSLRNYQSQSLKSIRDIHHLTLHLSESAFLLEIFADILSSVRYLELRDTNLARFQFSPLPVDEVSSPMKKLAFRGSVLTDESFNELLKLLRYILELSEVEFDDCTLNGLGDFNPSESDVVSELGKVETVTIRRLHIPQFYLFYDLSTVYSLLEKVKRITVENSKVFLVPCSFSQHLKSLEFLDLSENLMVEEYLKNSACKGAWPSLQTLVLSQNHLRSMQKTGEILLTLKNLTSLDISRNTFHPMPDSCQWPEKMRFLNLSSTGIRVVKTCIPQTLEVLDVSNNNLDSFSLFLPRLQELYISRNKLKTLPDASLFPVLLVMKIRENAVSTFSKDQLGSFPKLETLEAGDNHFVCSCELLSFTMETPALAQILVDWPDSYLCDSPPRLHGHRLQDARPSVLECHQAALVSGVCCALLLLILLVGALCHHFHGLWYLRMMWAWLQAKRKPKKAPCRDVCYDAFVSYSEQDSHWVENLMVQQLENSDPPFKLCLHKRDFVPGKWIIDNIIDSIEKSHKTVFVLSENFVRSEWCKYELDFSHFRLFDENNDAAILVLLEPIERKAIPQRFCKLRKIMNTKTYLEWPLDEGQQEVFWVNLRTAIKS
T1 sequence (Q9EPW9 28-795): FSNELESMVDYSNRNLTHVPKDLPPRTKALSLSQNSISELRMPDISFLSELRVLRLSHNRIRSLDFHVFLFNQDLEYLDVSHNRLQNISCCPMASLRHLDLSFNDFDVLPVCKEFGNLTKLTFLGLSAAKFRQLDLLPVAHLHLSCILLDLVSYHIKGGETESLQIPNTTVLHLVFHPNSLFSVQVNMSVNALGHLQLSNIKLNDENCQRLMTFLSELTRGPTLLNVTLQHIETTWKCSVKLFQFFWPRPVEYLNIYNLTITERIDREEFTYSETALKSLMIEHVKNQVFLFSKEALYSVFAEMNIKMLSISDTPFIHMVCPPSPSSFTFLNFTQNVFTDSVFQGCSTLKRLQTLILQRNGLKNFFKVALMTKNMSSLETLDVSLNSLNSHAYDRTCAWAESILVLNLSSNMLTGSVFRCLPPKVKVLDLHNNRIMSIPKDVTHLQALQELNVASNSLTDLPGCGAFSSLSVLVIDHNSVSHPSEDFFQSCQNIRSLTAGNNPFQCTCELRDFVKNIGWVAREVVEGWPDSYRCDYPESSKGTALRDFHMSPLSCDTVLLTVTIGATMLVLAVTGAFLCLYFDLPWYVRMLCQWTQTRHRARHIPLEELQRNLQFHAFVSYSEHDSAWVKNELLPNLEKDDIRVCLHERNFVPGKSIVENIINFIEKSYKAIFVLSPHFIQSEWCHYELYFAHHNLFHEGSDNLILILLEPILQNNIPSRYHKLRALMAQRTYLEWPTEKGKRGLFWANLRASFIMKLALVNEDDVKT

Sequence: RQIKIWFQNRRMKWKKSHCRVLLI (TIP1)
- MAPK activity (phosphorylation of ERK, JNK, p38) (TLR4 signaling pathways): MAPK activity is inhibited
- NF-κB activity (Iκ-Bα, Western blotting) (TLR4 signaling pathways): NF-κB activity was inhibited
- NO secretion level (hPBMC cells): highest decreasing effect on NO secretion level
- secretion level of IL-1β (NLRP3 inflammasome [1]): decreased
- secretion level of TNF-α (TLR2/6): decreased
- intracellular expression level of NLRP3 (NLRP3 inflammasome [2]): remarkably decreased
- intracellular expression level of active caspase-1 (10 kDa) (NLRP3 inflammasome [2]): remarkably decreased
- intracellular expression level of mature IL-1β (17 kDa) (NLRP3 inflammasome [2]): remarkably decreased
- NF-κB activity (LPS-induced p65 phosphorylation level in the nucleus) (NF-κB (p-p65)): NF-κB activity was decreased
- LPS-induced expression level of IL-6 in liver tissue [3]: remarkably decreased
- LPS-induced expression level of TNF-α in liver tissue [3]: remarkably decreased
- apoptosis in renal tissue (TUNEL-positive cells) [4]: decreased
- LPS-induced SEAP activity (hTLR4 (human TLR4); TIP 12.5, 25, 50 μM, then LPS, FIG. 1(a)): decreased LPS-induced SEAP activity in a concentration-dependent manner
- NF-κB activity (SEAP activity) (hTLR4 (human TLR4); together with LPS, FIG. 12(a)): highest inhibitory effect on NF-κB activity
- Poly(I:C)-induced generation of IFN-β [5]: inhibited
